The text below walks through data of paper PMC4160570, “Effects of proarrhythmic drugs on relaxation time and beating pattern in rat engineered heart tissue” (Basic Research in Cardiology, 2014).

The test system of data set [1] is rat engineered heart tissue (EHT). As to the kind of experiment: Video-optical analysis of contractile parameters of spontaneously beating rat EHTs (50 nM epinephrine). The following applies: for significant T2 prolongation (p<0.05 and at least 15 % vs baseline): 1-, 10-, 100-fold FTPC, 50 nM epinephrine, n = 4–8; for irregular beating as the primary effect: sinusoidal fluctuation of twitch amplitudes, time dependent; for ability to mimic the effect of JTV519 on 4AP-induced changes: flecainide 0.5 µM; for effect on 4AP-induced beating irregularity and aftercontractions / T2 values: 4AP 10 mM; for effect on 4AP-induced beating irregularity and aftercontractions: SEA0400 2 µM or JTV519 2 µM; for relaxation remaining prolonged with 4AP in presence of inhibitor: high concentration of 4AP plus SEA0400 or JTV519.

A further data set concerns mouse. As to conditions: in vivo; cited from earlier work.
The subject of a further data set is rat. The following applies: cited from earlier work.
Where [2] appears, read: 4AP 10 mM in absence and presence of the blocker, SEA0400 2 µM, JTV519 2 µM.

Structures are written as SMILES. Read-outs that look alike come from different tables or passages of the source.

The term LD50 denotes the dose at which mortality reaches 50%.

Regarding `CC(C)NCC(O)c1ccc(NS(C)(=O)=O)cc1` (racemic) [D,L-sotalol], in data set [1], the T2-effective concentrations was 100 fold FTPC; the “published IKs IC50 relative to threshold for group 1 or 2 effects” value is on record as “at or below the threshold for group 1 or 2 effects”; the “significant T2 prolongation (p<0.05 and at least 15 % vs baseline)” value was “Significant T2 prolongations”. Further, the LD50 with mouse is 790 mg∙kg^-1 (mouse, i. p.).
For `CCN(CC)CCCN(c1ccccc1)C1Cc2ccccc2C1` [Aprindine], the “significant T2 prolongation (p<0.05 and at least 15 % vs baseline)” value in data set [1] is on record as “Significant T2 prolongations”.
In the case of `COc1ccc(CCN2CCC(Nc3nc4ccccc4n3Cc3ccc(F)cc3)CC2)cc1` [Astemizole], the “effect on force (group 3)” value in data set [1] (1–100× FTPC) is listed as “decrease in force”. Moreover, the LD50 in the data set with mouse is 35 mg∙kg^-1 (mouse, i. v.).
Regarding `CC(C)COCC(CN(Cc1ccccc1)c1ccccc1)N1CCCC1` (stereo not drawn) [Bepridil], in data set [1], the “published IKs IC50 relative to threshold for group 1 or 2 effects” value is given as “at or below the threshold for group 1 or 2 effects”; the “significant T2 prolongation (p<0.05 and at least 15 % vs baseline)” value was “Significant T2 prolongations”; the “irregular beating as the primary effect” value is on record as “induced irregular beating”.
For the compound `COc1cc(N)c(Cl)cc1C(=O)NC1CCN(CCCOc2ccc(F)cc2)CC1OC` (stereo not drawn) [Cisapride], in the data set on rat (in vivo), the LD50 was 4.166 mg∙kg^-1 (rat, p. o.). In addition, the “significant T2 prolongation (p<0.05 and at least 15 % vs baseline)” value in data set [1] is “Significant T2 prolongations”.
Regarding `CC[C@H]1OC(=O)[C@H](C)[C@@H](O[C@H]2C[C@@](C)(OC)[C@@H](O)[C@H](C)O2)[C@H](C)[C@@H](O[C@@H]2O[C@H](C)C[C@H](N(C)C)[C@H]2O)[C@](C)(OC)C[C@@H](C)C(=O)[C@H](C)[C@@H](O)[C@]1(C)O` [Clarithromycin], the LD50 in the data set on rat (in vivo) was 1.270 mg∙kg^-1 (rat, p. o.) 850 mg∙kg^-1 (mouse, i. p.). Further, in data set [1], the “published IC50 values for hERG and Ito relative to threshold for T2 prolongation or irregularity” value is recorded as “at or below the threshold for T2 prolongation or irregularity”; the “significant T2 prolongation (p<0.05 and at least 15 % vs baseline)” value is “Significant T2 prolongations”. For the same compound, the LD50 in the data set on mouse is on record as 1.270 mg∙kg^-1 (rat, p. o.) 850 mg∙kg^-1 (mouse, i. p.).
Consider `CNCCCN1c2ccccc2CCc2ccccc21` [Desipramine], for which, in data set [1], the “significant T2 prolongation (p<0.05 and at least 15 % vs baseline)” value is “Significant T2 prolongations”; the “irregular beating as the primary effect” value is “induced irregular beating”. For the same compound, the LD50 in the data set on mouse is 740 mg∙kg^-1 (mouse, p. o.).
Consider `CN(C)CCOC(c1ccccc1)c1ccccc1` [Diphenhydramine], for which the “effect on contraction time T1 (group 3)” value in data set [1] (1–100× FTPC) was “prolongation of contraction time T1”.
Regarding `CC(C)N(CCC(C(N)=O)(c1ccccc1)c1ccccn1)C(C)C` (stereo not drawn) [Disopyramide], the LD50 in the data set with rat (in vivo) is 333 mg∙kg^-1 (rat, p. o.). Also, in data set [1], the T2-effective concentrations was determined as 5 fold FTPC; the “significant T2 prolongation (p<0.05 and at least 15 % vs baseline)” value is given as “Significant T2 prolongations”.
Consider `CN(CCOc1ccc(NS(C)(=O)=O)cc1)CCc1ccc(NS(C)(=O)=O)cc1` [Dofetilide], for which the “effect on T2 at 100-fold IC50 concentrations” value in data set [1] is listed as “lack of effect”. The “effect on the parameters studied (group 4)” value in data set [1] (1–100× FTPC) is “without any effect on the parameters studied”.
For `O=c1[nH]c2ccccc2n1CCCN1CCC(n2c(=O)[nH]c3cc(Cl)ccc32)CC1` [Domperidone], the “significant T2 prolongation (p<0.05 and at least 15 % vs baseline)” value in data set [1] is given as “Significant T2 prolongations”.
For `CC(C)(C)c1ccc(C(=O)CCCN2CCC(OC(c3ccccc3)c3ccccc3)CC2)cc1` [Ebastine], the “significant T2 prolongation (p<0.05 and at least 15 % vs baseline)” value in data set [1] is “Significant T2 prolongations”.
Same read-out and setting: the value for `CC(C)(C(=O)O)c1ccc(C(O)CCCN2CCC(C(O)(c3ccccc3)c3ccccc3)CC2)cc1` (stereo not drawn) [Fexofenadine] was “Significant T2 prolongations”.
Take `O=C(NCC1CCCCN1)c1cc(OCC(F)(F)F)ccc1OCC(F)(F)F` (stereo not drawn) [Flecainide]: the LD50 in the data set with rat (in vivo) is listed as 1.346 mg∙kg^-1 (rat, p. o.). The “significant T2 prolongation (p<0.05 and at least 15 % vs baseline)” value in data set [1] was “Significant T2 prolongations”. The “ability to mimic the effect of JTV519 on 4AP-induced changes” value in data set [1] (data not shown) was “did not mimic the effect of JTV519”.
For `CC[C@H](CO)Nc1nc(NCc2ccccc2)n2ncc(C(C)C)c2n1` [GP 0210], the “Effect on EHT contractility” value in data set [1] (NCEs tested at 0.1, 1, 10 µM) is given as “-”.
Consider `O=C(CCCN1CCC(O)(c2ccc(Cl)cc2)CC1)c1ccc(F)cc1` [Haloperidol], for which the LD50 is 128 mg∙kg^-1 (rat, p. o.) 30 mg∙kg^-1 (mouse, i. p.) with rat (in vivo) and 128 mg∙kg^-1 (rat, p. o.) 30 mg∙kg^-1 (mouse, i. p.) with mouse. Besides, the “effect on contraction time T1 (group 3)” value in data set [1] (1–100× FTPC) is given as “prolongation of contraction time T1”.
With `CCCCCCCN(CC)CCCC(O)c1ccc(NS(C)(=O)=O)cc1` (stereo not drawn) [Ibutilide], the “effect on T2 at 100-fold IC50 concentrations” value in data set [1] was “lack of effect”. The “effect on the parameters studied (group 4)” value in data set [1] (1–100× FTPC) is recorded as “without any effect on the parameters studied”.
For the compound `CN(C)CCCN1c2ccccc2CCc2ccccc21` [Imipramine], the “irregular beating as the primary effect” value in data set [1] is “induced irregular beating”.
On to `COc1ccc2c(c1)CN(C(=O)CCN1CCC(Cc3ccccc3)CC1)CCS2` [JTV519], for which the “effect on the T2-prolonging effect of 4AP” value (“effect … of 4AP” for short) in data set [1] (setting [2]) is “reduced the effect of 4AP”. For the same compound, in data set [1], the “effect on 4AP-induced beating irregularity and aftercontractions” value was “completely abolished beating irregularity and aftercontractions”; the “relaxation remaining prolonged with 4AP in presence of inhibitor” value was ~ 200%. The compound also returned a T2 values in data set [1] (SEA0400 2 µM, JTV519 2 µM) of 80 ms.
Regarding `OC(c1cc(C(F)(F)F)nc2c(C(F)(F)F)cccc12)C1CCCCN1` (stereo not drawn) [Mefloquine], the LD50 in the data set on rat (in vivo) is given as 880 mg∙kg^-1 (rat, p. o.). Moreover, the “effect on contraction time T1 (group 3)” value in data set [1] (1–100× FTPC) is “prolongation of contraction time T1”.
Turning to `COc1c(N2C[C@@H]3CCCN[C@@H]3C2)c(F)cc2c(=O)c(C(=O)O)cn(C3CC3)c12` [Moxifloxacin], in data set [1], the T2-effective concentrations stood at 100 fold FTPC; the “significant T2 prolongation (p<0.05 and at least 15 % vs baseline)” value is reported as “Significant T2 prolongations”.
In the case of `O=C1NC(=O)C(c2ccccc2)(c2ccccc2)N1` [Phenytoin], the median lethal dose (LD50) in the data set with rat (in vivo) was 1.635 mg∙kg^-1 (rat, p. o.) 100 mg∙kg^-1 (mouse, i. p.). In addition, in data set [1], the “EHT-effective concentrations relative to hERG IC50” value is “relaxation slowing occurred at concentrations below hERG IC50”; the “concentration at which T2 is prolonged” value came to 1 × FTPC; the “significant T2 prolongation (p<0.05 and at least 15 % vs baseline)” value is “Significant T2 prolongations”. For the same compound, the 50% lethal dose (LD50) in the data set on mouse is on record as 1.635 mg∙kg^-1 (rat, p. o.) 100 mg∙kg^-1 (mouse, i. p.).
Consider `O=c1[nH]c2ccccc2n1C1CCN(CCCC(c2ccc(F)cc2)c2ccc(F)cc2)CC1` [Pimozide], for which the LD50 in the data set on mouse is reported as 288 mg∙kg^-1 (mouse, p. o.).
For `CCN(CC)CCNC(=O)c1ccc(N)cc1` [Procainamide], in data set [1], the “significant T2 prolongation (p<0.05 and at least 15 % vs baseline)” value is “Significant T2 prolongations”.
Turning to `Cc1nc2n(c(=O)c1CCN1CCC(c3noc4cc(F)ccc34)CC1)CCCC2` [Risperidone], the LD50 in the data set on rat (in vivo) is 56,6 mg∙kg^-1 (rat, p. o.).
Take `CCOc1ccc(Oc2ccc(OCc3cc(F)ccc3F)cc2)c(N)c1` [SEA0400]: the “effect … of 4AP” value in data set [1] (setting [2]) is “reduced the effect of 4AP”. Moreover, in data set [1], the “effect on 4AP-induced beating irregularity and aftercontractions” value is “completely abolished beating irregularity and aftercontractions”; the “relaxation remaining prolonged with 4AP in presence of inhibitor” value is on record as ~ 200%. Further, in data set [1] (SEA0400 2 µM, JTV519 2 µM), the T2 values was 78 ms.
`O=C1NCCN1CCN1CCC(c2cn(-c3ccc(F)cc3)c3ccc(Cl)cc23)CC1` [Sertindole]: in data set [1] (1–100× FTPC), the “effect on contraction time T1 (group 3)” value was “prolongation of contraction time T1”. Besides, the LD50 in the data set on mouse is recorded as 420 mg∙kg^-1 (mouse, i. p.).
As to `C[C@@H]1CN(c2c(F)c(N)c3c(=O)c(C(=O)O)cn(C4CC4)c3c2F)C[C@H](C)N1` [Sparfloxacin], in data set [1], the “significant T2 prolongation (p<0.05 and at least 15 % vs baseline)” value is “Significant T2 prolongations”. Moreover, the “changes associated with T2 prolongation” value in data set [1] (original recording, Supplemental Fig. 4) is “marked reduction of beating rate and an increase in twitch force”.
In the case of `CC/C(=C(\c1ccccc1)c1ccc(OCCN(C)C)cc1)c1ccccc1` [Tamoxifen], in the data set with rat (p. o.), the 50% lethal dose (LD50) is recorded as 4.100 mg∙kg^-1 (rat, p. o.).
Regarding `CC(C)(C)c1ccc(C(O)CCCN2CCC(C(O)(c3ccccc3)c3ccccc3)CC2)cc1` (stereo not drawn) [Terfenadine], the “effect on T2 (group 3)” value in data set [1] (1–100× FTPC) is given as “shortening of T2”.
Regarding `CCCCNc1ccc(C(=O)OCCN(C)C)cc1` [Tetracaine], in data set [1] (setting [2]), the “effect … of 4AP” value is recorded as “increased the T2-prolonging effect of 4AP”. The “ability to mimic the effect of JTV519 on 4AP-induced changes” value in data set [1] (data not shown) is given as “did not mimic the effect of JTV519”.
For `NC1=N[C@H](O)[C@H]2[C@H]3O[C@]4(O)O[C@@H]([C@@H](O)[C@@]2(N1)[C@@H]4O)[C@]3(O)CO` [Tetrodotoxin], in data set [1], the “effect of pure INa blockers on T1” value was “did not prolong T1” and the “effect … of 4AP” value is “increased the T2-prolonging effect of 4AP”.
For the compound `C/C=C(/C)C(=O)O[C@H]1C(C)=C2[C@H]([C@@H]1OC(=O)CCCCCCC)[C@@](C)(OC(C)=O)C[C@H](OC(=O)CCC)[C@@]1(O)[C@H]2OC(=O)[C@@]1(C)O` [Thapsigargin], the “effect on time of relaxation, alone” value in data set [1] (3–30 nM) is listed as “did not affect time of relaxation as such”. The “effect … of 4AP” value in data set [1] (setting [2]) is “increased the T2-prolonging effect of 4AP”.
As to `CSc1ccc2c(c1)N(CCC1CCCCN1C)c1ccccc1S2` (stereo not drawn) [Thioridazine], the “irregular beating as the primary effect” value in data set [1] is recorded as “induced irregular beating”.
Consider `Cn1c(=O)c2c(ncn2C)n(C)c1=O` [caffeine], for which the “effect on beating rate and twitch” value in data set [1] (high concentration of caffeine (5 mM)) was “reduced beating rate and induced a large and wide twitch”.
As to `C[N+](C)(C)CCOC(N)=O` [carbachol], the “effect on frequency of beating in the burst” value in data set [1] (carbachol 1 µM added to epinephrine 50 nM) was “reversed epinephrine effect and induced partial stop”. In data set [1] (carbachol 1 µM plus epinephrine), the “EHTs that stopped spontaneous beating” value is 3/7.
Take `CCN(CC)CC(=O)Nc1c(C)cccc1C` [lidocaine]: the “effect of pure INa blockers on T1” value in data set [1] (data not shown) was “did not prolong T1”.
